Source: patent US5663331A, “Cephalosporin compounds” (Il-Dong Pharm. Co., Ltd., priority 1992, dated 1997)
Converted amounts (≈) assume the structure as drawn.

What was measured:
Type in all cases: cell-based
[1] = system: Bacillus subtilis ATCC 6633; experiment: MIC, two-fold dilution method, Bacillus subtilis ATCC 6633; details: 10^6 CFU per ml, 37° C., 18 to 20 hours; for MIC: ATCC6633, Muller Hinton Broth, read-out: Antibacterial Activity (MIC); for Antibacterial Activity (MIC): Muller Hinton Broth
Procedure: (§1) In order to illustrate the usefulness of the invented compounds, the minimal inhibitory concentrations-(MIC) thereof against standard strains were determined and compared with Cefotaxime, a known compound. Also, the in vitro antibacterial activity was determined by a two-fold dilution method as described below: That is, the two-fold serial dilutions of the compound were made and dispersed in Muller Hinton Broth medium. Standard test strain which had the 10^6 CFU per ml was inoculated on the medium, and was incubated at 37° C. for 18 to 20 hours.

[2] = system: Staphylococcus aureus ATCC 65389; experiment: MIC, two-fold dilution method, Staphylococcus aureus ATCC 65389; details: 10^6 CFU per ml, 37° C., 18 to 20 hours; for MIC: ATCC65389, Muller Hinton Broth, read-out: Antibacterial Activity (MIC); for Antibacterial Activity (MIC): Muller Hinton Broth
Procedure: as §1

[3] = system: Staphylococcus epidermidis ATCC 12228; experiment: MIC, two-fold dilution method, Staphylococcus epidermidis ATCC 12228; details: 10^6 CFU per ml, 37° C., 18 to 20 hours; for MIC: ATCC12228, Muller Hinton Broth, read-out: Antibacterial Activity (MIC); for Antibacterial Activity (MIC): Muller Hinton Broth
Procedure: as §1

[4] = system: Streptococcus faecalis ATCC 10541; experiment: MIC, two-fold dilution method, Streptococcus faecalis ATCC 10541; details: 10^6 CFU per ml, 37° C., 18 to 20 hours; for MIC: Enterococcus faecalis, ATCC10541, Muller Hinton Broth, read-out: Antibacterial Activity (MIC); for Antibacterial Activity (MIC): Muller Hinton Broth
Procedure: as §1

[5] = system: Pseudomonas aeurginosa NCTC 10490; experiment: MIC, two-fold dilution method, Pseudomonas aeurginosa NCTC 10490; details: 10^6 CFU per ml, 37° C., 18 to 20 hours; for MIC: NCTC10490, Muller Hinton Broth, read-out: Antibacterial Activity (MIC); for Antibacterial Activity (MIC): Muller Hinton Broth
Procedure: as §1

[6] = system: Esherichia coli ATCC 25922; experiment: MIC, two-fold dilution method, Esherichia coli ATCC 25922; details: Muller Hinton Broth, 10^6 CFU per ml, 37° C., 18 to 20 hours; for MIC: read-out: Antibacterial Activity (MIC)
Procedure: as §1

[7] = system: Klebsiella pneumoniae ATCC 10031; experiment: MIC, two-fold dilution method, Klebsiella pneumoniae ATCC 10031; details: 10^6 CFU per ml, 37° C., 18 to 20 hours; for MIC: ATCC10031, Muller Hinton Broth, read-out: Antibacterial Activity (MIC); for Antibacterial Activity (MIC): Muller Hinton Broth
Procedure: as §1

SMILES	MIC [1]	MIC [2]	MIC [3]	MIC [4]	MIC [5]	MIC [6]	MIC [7]	Antibacterial Activity (MIC) [1]	Antibacterial Activity (MIC) [2]	Antibacterial Activity (MIC) [3]	Antibacterial Activity (MIC) [4]	Antibacterial Activity (MIC) [5]	Antibacterial Activity (MIC) [6]	Antibacterial Activity (MIC) [7]
CCN1CCN(c2cc3c(cc2F)c(SCC2=C(C(=O)[O-])N4C(=O)C(NC(=O)/C(=N\OC(C)(C)C(=O)O)c5csc(N)n5)C4SC2)cc[n+]3C2CC2)CC1 (centres unmarked) [Compound I-59, 7-[(Z)-2-(2-aminothiazol-4-yl)-2-(2-carboxyprop-2-oxyimino)acetamido]-3-[1-cyclopropyl-6-fluoro-7-(1-ethylpiperazinyl)quinolinium-4-yl]thiomethyl-3-cephem-4-carboxylate]	0.39 µg/mL (≈ 0.488 µM)	0.78 µg/mL (≈ 0.976 µM)	1.56 µg/mL (≈ 1.95 µM)	0.78 µg/mL (≈ 0.976 µM)	0.78 µg/mL (≈ 0.976 µM)	0.78 µg/mL (≈ 0.976 µM)	0.39 µg/mL (≈ 0.488 µM)							
C#CCO/N=C(\C(=O)NC1C(=O)N2C(C(=O)[O-])=C(CSc3cc[n+](CC)c4cc(N5CCN(CC)CC5)c(F)cc34)CSC12)c1csc(N)n1 (centres unmarked) [Compound I-47, 7-[(Z)-2-(2-aminothiazol-4-yl)-2-(propargyloxyimino)acetamido]-3-[1-ethyl-6-fluoro-7-(1-ethylpiperazinyl)quinolinium-4-yl]thiomethyl-3-cephem-4-carboxylate]	0.2 µg/mL (≈ 0.271 µM)	0.2 µg/mL (≈ 0.271 µM)	0.78 µg/mL (≈ 1.06 µM)	0.1 µg/mL (≈ 0.135 µM)	1.56 µg/mL (≈ 2.11 µM)	6.25 µg/mL (≈ 8.46 µM)	1.56 µg/mL (≈ 2.11 µM)							
C=CCO/N=C(\C(=O)NC1C(=O)N2C(C(=O)[O-])=C(CSc3cc[n+](CC=C)c4cc(N5CCNCC5)c(F)cc34)CS[C@H]12)c1csc(N)n1 (some centres unmarked) [Compound I-33, 7-[(Z)-2-(2-aminothiazol-4-yl)-2-(allyloxyimino)acetamido]-3-(1-allyl-6-fluoro-7-piperazinylquinolinium-4-yl)thiomethyl-3-cephem-4-carboxylate]	0.78 µg/mL (≈ 1.08 µM)	0.78 µg/mL (≈ 1.08 µM)	1.56 µg/mL (≈ 2.15 µM)	0.39 µg/mL (≈ 0.538 µM)	3.13 µg/mL (≈ 4.32 µM)	3.13 µg/mL (≈ 4.32 µM)	1.56 µg/mL (≈ 2.15 µM)							
CO/N=C(\C(=O)NC1C(=O)N2C(C(=O)[O-])=C(CSc3cc[n+](C)c4cc(N5CCNCC5C)c(F)cc34)CSC12)c1csc(N)n1 (centres unmarked) [Compound I-4, 7-[(Z)-2-(2-aminothiazol-4-yl)-2-(methoxyimino)acetamido]-3-(1-methyl-6-fluoro-7-(2-methyl)piperazinylquinolinium-4-yl]thiomethyl-3-cephem-4-carboxylate]								0.1 µg/mL	0.1 µg/mL	0.2 µg/mL	0.05 µg/mL	0.78 µg/mL	0.78 µg/mL	0.1 µg/mL
C#CCO/N=C(\C(=O)NC1C(=O)N2C(C(=O)[O-])=C(CSc3cc[n+](C4CC4)c4cc(N5CCN(C)CC5)c(F)cc34)CSC12)c1csc(N)n1 (centres unmarked) [Compound I-42, 7-[(Z)-2-(2-aminothiazol-4-yl)-2-(propargyloxyimino)acetamido]-3-[1-cyclopropyl-6-fluoro-7-(N-methylpiperazinyl)quinolinium-4-yl]thiomethyl-3-cephem-4-carboxylate]	0.2 µg/mL (≈ 0.271 µM)	0.78 µg/mL (≈ 1.06 µM)	0.78 µg/mL (≈ 1.06 µM)	0.39 µg/mL (≈ 0.529 µM)	3.13 µg/mL (≈ 4.25 µM)	3.13 µg/mL (≈ 4.25 µM)	3.13 µg/mL (≈ 4.25 µM)							
CO/N=C(\C(=O)NC1C(=O)N2C(C(=O)[O-])=C(CSc3cc[n+](C)c4cc(N5CCN(C)CC5)c(F)cc34)CSC12)c1csc(N)n1 (centres unmarked) [Compound I-2, 7-[(Z)-2-(2-aminothiazol-4-yl)-2-(methoxyimino)acetamido]-3-[1-methyl-6-fluoro-7-(N-methylpiperazinyl)quinolinium-4-yl]thiomethyl-3-cephem-4-carboxylate]	0.39 µg/mL (≈ 0.568 µM)	1.56 µg/mL (≈ 2.27 µM)	0.78 µg/mL (≈ 1.14 µM)	0.39 µg/mL (≈ 0.568 µM)	3.13 µg/mL (≈ 4.56 µM)	12.5 µg/mL (≈ 18.2 µM)	0.39 µg/mL (≈ 0.568 µM)							
C=CCO/N=C(\C(=O)NC1C(=O)N2C(C(=O)[O-])=C(CSc3cc[n+](C4CC4)c4cc(N5CCNCC5C)c(F)cc34)CS[C@H]12)c1csc(N)n1 (some centres unmarked) [Compound I-28, 7-[(Z)-2-(2-aminothiazol-4-yl)-2-(allyloxyimino)acetamido]-3-[1-cyclopropyl-6-fluoro-7-(2-methylpiperazinyl)quinolinium-4-yl]thiomethyl-3-cephem-4-carboxylate]								0.39 µg/mL	0.2 µg/mL	0.2 µg/mL	0.2 µg/mL	1.56 µg/mL		0.78 µg/mL
CC[n+]1ccc(SCC2=C(C(=O)[O-])N3C(=O)C(NC(=O)/C(=N\OC(C)(C)C(=O)O)c4csc(N)n4)[C@H]3SC2)c2cc(F)c(-n3ccnc3)cc21 (some centres unmarked) [Compound I-65, 7-[(Z)-2-(2-aminothiazol-4-yl)-2-(2-carboxyprop-2-oxyimino)acetamido]-3-(1-ethyl-6-fluoro-7-imidazolylquinolinium-4-yl)thiomethyl-3-cephem-4-carboxylate]								0.39 µg/mL	1.56 µg/mL	1.56 µg/mL	0.39 µg/mL	1.56 µg/mL		1.56 µg/mL
C#CCO/N=C(\C(=O)NC1C(=O)N2C(C(=O)[O-])=C(CSc3cc[n+](C)c4cc(N5CCN(C)CC5)c(F)cc34)CSC12)c1csc(N)n1 (centres unmarked) [Compound I-38, 7-[(Z)-2-(2-aminothiazol-4-yl)-2-(propargyloxyimino)acetamido]-3-[1-methyl-6-fluoro-7-(N-methylpiperazinyl)quinolinium-4-yl]thiomethyl-3-cephem-4-carboxylate]	0.78 µg/mL (≈ 1.1 µM)	0.78 µg/mL (≈ 1.1 µM)	0.39 µg/mL (≈ 0.549 µM)	0.2 µg/mL (≈ 0.281 µM)	0.78 µg/mL (≈ 1.1 µM)		3.13 µg/mL (≈ 4.4 µM)							
CO/N=C(\C(=O)NC1C(=O)N2C(C(=O)[O-])=C(CSc3cc[n+](C)c4cc(-n5cnc(C)c5)c(F)cc34)CSC12)c1csc(N)n1 (centres unmarked) [Compound I-18, 7-[(Z)-2-(2-aminothiazol-4-yl)-2-(methoxyimino)acetamido]-3-[1-methyl-6-fluoro-7-(4-methylimidazolyl)quinolinium-4-yl]thiomethyl-3-cephem-4-carboxylate]								0.1 µg/mL	0.2 µg/mL	0.2 µg/mL	0.2 µg/mL	1.56 µg/mL		
C#CCO/N=C(\C(=O)NC1C(=O)N2C(C(=O)[O-])=C(CSc3cc[n+](C)c4cc(N5CCN(CC)CC5)c(F)cc34)CSC12)c1csc(N)n1 (centres unmarked) [Compound I-39]	0.2 µg/mL (≈ 0.276 µM)	0.39 µg/mL (≈ 0.538 µM)	0.2 µg/mL (≈ 0.276 µM)	0.2 µg/mL (≈ 0.276 µM)	0.2 µg/mL (≈ 0.276 µM)		0.78 µg/mL (≈ 1.08 µM)							
C=CCO/N=C(\C(=O)NC1C(=O)N2C(C(=O)[O-])=C(CSc3cc[n+](C4CC4)c4cc(N5CCN(CC)CC5)c(F)cc34)CSC12)c1csc(N)n1 (centres unmarked) [Compound I-27]	0.2 µg/mL (≈ 0.266 µM)	0.2 µg/mL (≈ 0.266 µM)	0.2 µg/mL (≈ 0.266 µM)	0.2 µg/mL (≈ 0.266 µM)	0.78 µg/mL (≈ 1.04 µM)		0.39 µg/mL (≈ 0.518 µM)							
CC[n+]1ccc(SCC2=C(C(=O)[O-])N3C(=O)C(NC(=O)/C(=N\OC(C)(C)C(=O)O)c4csc(N)n4)[C@H]3SC2)c2cc(F)c(N3CCNCC3)cc21 (some centres unmarked) [Compound I-53, 7-[(Z)-2-(2-aminothiazol-4-yl)-2-(2-carboxyprop-2-oxyimino)acetamido]-3-(1-ethyl-6-fluoro-7-piperazinylquinolinium-4-yl)thiomethyl-3-cephem-4-carboxylate]								0.39 µg/mL	3.13 µg/mL	1.56 µg/mL	0.39 µg/mL	1.56 µg/mL		1.56 µg/mL
C#CCO/N=C(\C(=O)NC1C(=O)N2C(C(=O)[O-])=C(CSc3cc[n+](C)c4cc(N5CCNCC5)c(F)cc34)CS[C@H]12)c1csc(N)n1 (some centres unmarked) [Compound I-37, 7-[(Z)-2-(2-aminothiazol-4-yl)-2-(propargyloxyimino)acetamido]-3-(1-methyl-6-fluoro-7-piperazinylquinolinium-4-yl)thiomethyl-3-cephem-4-carboxylate]	0.2 µg/mL (≈ 0.287 µM)	0.39 µg/mL (≈ 0.56 µM)	0.78 µg/mL (≈ 1.12 µM)	0.2 µg/mL (≈ 0.287 µM)	0.2 µg/mL (≈ 0.287 µM)		0.78 µg/mL (≈ 1.12 µM)							
C#CCO/N=C(\C(=O)NC1C(=O)N2C(C(=O)[O-])=C(CSc3cc[n+](C)c4cc(N5CCNCC5C)c(F)cc34)CS[C@H]12)c1csc(N)n1 (some centres unmarked) [Compound I-40, 7-[(Z)-2-(2-aminothiazol-4-yl)-2-(propargyloxyimino)acetamido]-3-[1-methyl-6-fluoro-7-(2-methylpiperazinyl)quinolinium-4-yl]thiomethyl-3-cephem-4-carboxylate]								0.2 µg/mL	0.39 µg/mL	0.1 µg/mL	0.2 µg/mL	0.2 µg/mL		0.78 µg/mL
